Measurements from patent US20250361281A1, “AMYLIN RECEPTOR (hAMY3R) AGONISTS WITH IMPROVED CHEMICAL STABILITY” (GUBRA A/S, priority 2022, published 2025).
Starred links: 1 amine or outer side, 2 acyl side, 3 side chain; linkers in the order of their positions; H or OH if unused. Positions of bridges follow the written chain, without caps; N, C: chain ends. Non-standard residues stand in square brackets, D forms with d. Residues, ends and D or L forms follow the SMILES beside them. No end group written: not given here. *: point of attachment. C20 diacid = O=C(O)CCCCCCCCCCCCCCCCCCC(=O)*; γGlu = O=C(O)[C@H](CCC(=O)[*:2])N[*:1]; Hyp = O=C(O)[C@@H]1C[C@@H](O)CN1

Key:
[1] = cited from earlier work; for fibrillation at pH 7: pH 7, background statement
[2] = Physical stability of peptide analogues (Thioflavin T fibrillation); type: physicochemical; settings: ThT fluorescence, 40° C., shaking, four days; pH 4 or pH 7 buffer
Method: General Protocols for Determination of Physical Stability of Peptide Analogues
Peptides were dissolved in buffers (50 mM sodium acetate at pH 4 or 50 mM sodium phosphate at pH 7) and incubated for one hour. The samples were then divided into two replicates of 80 μl in a black 384 well plate (μ-clear, Greiner Bio-One) and mixed with Thioflavin T (ThT) to a final concentration of 4 μM. The plate was sealed and placed in a plate reader (CLARIOstar, BMG) where the temperature was set at 40° C. during the course of the experiment. The samples were further stressed by shaking the plate at 700 rpm (linear) for five minutes before every measurement. The fluorescence was measured every 10 min for four days by exciting the ThT at 450 nm and measuring the emission at 480 nm. For each peptide, the ThT signal over time was smoothened using Local Polynomial Regression fitting (LOESS) as implemented in the statistical programming environment R. For the smoothened data, the maximum ThT signal was normalized in percent between the maximum ThT signal for hAMY and the buffer background.

[3] = Determination of deamidation and isomerization (LC-MS); type: physicochemical; settings: 50 mM phosphate buffer pH 7, 40° C., up to 28 days
Method: General Protocol for Determination of Deamidation and Isomerization
Peptides were dissolved in 50 mM phosphate buffer (pH 7) and incubated at 40° C. for up to 28 days. The samples were then analysed on a Exploris120 mass spectrometer coupled to a Vanquish Tandem UPLC (both Thermo Fisher) equipped with an Acquity BEH C18 column (1.7 um, 2.1×50 mm, 130A, Waters). Peptides were eluted using a linear gradient starting at 5% over 7.5 min to 70% buffer B at a flow rate of 0.4 mL/min (buffer B=100% acetonitrile with 0.1% formic acid; buffer A=100% water with 0.1% formic acid). Data were acquired in data-dependent acquisition mode at a MS1 resolution of 60.000, and a MS2 resolution of 30.000 in positive mode (Top4). Peptides were fragmented with a normalized collision energy of 25%. Deamidation and isomerization were quantified using area under the curve integration.

[4] = Determination of dimer and HMWP formation (size exclusion chromatography); type: physicochemical; settings: 50 mM phosphate buffer pH 7, 40° C., up to 28 days
Method: General Protocol for Determination of Dimer and HMWP Formation
Peptides were dissolved in 50 mM phosphate buffer (pH 7) and incubated at 40° C. for up to 28 days. The samples were then analysed using size exclusion chromatography analysis to quantify the amount of High Molecular Weight Products (HMWP), which is an overall term for covalently linked peptide dimers, trimers, and higher order multimers. Analyses were carried out on a Dionex Ultimate 3000 RS UHPLC Focused chromatography system (Thermo Scientific) equipped with a Acquity Protein BEH SEC 1.7 μm 4.6×300 mm 125 Å column (Waters part no 186006506). The solvent system consisted of two mobile phases that are assumed to break all non-covalent interactions between peptides leaving only monomeric peptide and covalent HMWP to be analysed. • Mobile phase A (all v/v %): 95% H2O, 5% MeCN (Acetonitrile), 0.1% TFA (Trifluoroacetic acid) • Mobile phase B (all v/v %): 95% MeCN, 5% H2O, 0.1% TFA
The typically load was 1 μl of 1.0 mg/ml, and the detection signal at 215 nm should optimally be between 0.1 and 1.5 abs units. Isocratic elution was done with 60% mobile phase B and a flow of 0.3 ml/min in 20 minutes. Chromatograms were integrated as HMWP (all peaks in front of the main peak) The amount of the various species was reported as area relative to total area in percentage.

[5] = molecular target: T1, hAMY3 receptor (Homo sapiens, UniProt O60896+P30988); settings: previously shown (WO 2022/063925 A1); read-out: hAMY3R EC50; cited from earlier work
T1 construct: monoclonal sub-clone
T1 sequence (P30988 25-474): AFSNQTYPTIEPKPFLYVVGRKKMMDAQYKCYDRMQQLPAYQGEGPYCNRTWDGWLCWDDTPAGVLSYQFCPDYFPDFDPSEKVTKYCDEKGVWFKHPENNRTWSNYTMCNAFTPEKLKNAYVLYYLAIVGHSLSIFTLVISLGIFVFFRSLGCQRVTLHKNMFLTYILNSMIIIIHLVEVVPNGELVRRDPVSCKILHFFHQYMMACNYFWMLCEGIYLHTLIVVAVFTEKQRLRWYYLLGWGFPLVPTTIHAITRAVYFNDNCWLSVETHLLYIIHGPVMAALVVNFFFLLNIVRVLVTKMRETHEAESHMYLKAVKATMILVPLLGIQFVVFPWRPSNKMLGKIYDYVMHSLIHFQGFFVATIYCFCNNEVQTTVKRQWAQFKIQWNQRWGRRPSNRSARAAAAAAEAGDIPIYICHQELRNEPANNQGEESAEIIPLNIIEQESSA
T1 sequence (O60896 24-148 partner): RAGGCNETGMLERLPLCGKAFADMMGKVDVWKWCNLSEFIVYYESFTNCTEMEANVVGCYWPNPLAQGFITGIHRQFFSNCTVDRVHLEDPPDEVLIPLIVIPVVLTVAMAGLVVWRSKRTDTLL

[6] = molecular target: T2, hAM1 receptor (Homo sapiens, UniProt O60895+Q16602); settings: previously shown (WO 2022/063925 A1); read-out: hAM1R EC50; cited from earlier work
T2 construct: monoclonal sub-clone
T2 sequence (Q16602 23-461): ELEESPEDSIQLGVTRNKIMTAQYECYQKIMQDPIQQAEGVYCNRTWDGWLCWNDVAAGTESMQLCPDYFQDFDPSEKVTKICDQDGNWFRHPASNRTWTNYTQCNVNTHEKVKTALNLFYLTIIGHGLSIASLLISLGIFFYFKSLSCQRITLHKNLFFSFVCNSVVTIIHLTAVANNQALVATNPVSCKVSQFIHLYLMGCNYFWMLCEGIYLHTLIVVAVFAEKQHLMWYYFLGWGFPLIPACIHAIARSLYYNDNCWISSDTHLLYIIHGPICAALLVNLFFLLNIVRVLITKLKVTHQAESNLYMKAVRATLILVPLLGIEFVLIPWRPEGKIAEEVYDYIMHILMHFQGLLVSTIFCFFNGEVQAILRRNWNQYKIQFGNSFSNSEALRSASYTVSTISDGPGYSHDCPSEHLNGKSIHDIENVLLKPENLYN
T2 sequence (O60895 43-175 partner): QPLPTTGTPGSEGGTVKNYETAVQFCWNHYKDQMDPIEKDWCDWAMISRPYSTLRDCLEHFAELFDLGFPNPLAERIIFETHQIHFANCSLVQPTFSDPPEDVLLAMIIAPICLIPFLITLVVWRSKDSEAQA

[7] = molecular target: T3, human amylin receptor 3 (hAMY3R) (human, UniProt P30988 25-474; O60896 24-148); experiment: cell-based or functional assay
T3 sequence (looked up) 1: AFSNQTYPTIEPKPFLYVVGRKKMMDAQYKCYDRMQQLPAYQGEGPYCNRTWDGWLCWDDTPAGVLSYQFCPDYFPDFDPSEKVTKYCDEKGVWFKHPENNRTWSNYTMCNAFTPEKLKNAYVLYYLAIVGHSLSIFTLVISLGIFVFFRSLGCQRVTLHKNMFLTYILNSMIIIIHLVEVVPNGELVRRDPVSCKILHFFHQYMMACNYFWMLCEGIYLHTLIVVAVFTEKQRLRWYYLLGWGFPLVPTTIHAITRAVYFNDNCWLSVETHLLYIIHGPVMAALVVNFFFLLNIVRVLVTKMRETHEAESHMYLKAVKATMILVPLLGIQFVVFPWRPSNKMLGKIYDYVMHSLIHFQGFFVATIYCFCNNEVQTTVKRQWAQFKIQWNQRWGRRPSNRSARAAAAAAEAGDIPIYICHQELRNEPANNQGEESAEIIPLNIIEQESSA
T3 sequence (looked up) 2: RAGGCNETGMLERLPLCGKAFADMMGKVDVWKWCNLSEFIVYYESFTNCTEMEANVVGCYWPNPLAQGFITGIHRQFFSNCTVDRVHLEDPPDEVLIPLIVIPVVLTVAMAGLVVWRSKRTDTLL

[8] = molecular target: human adrenomedullin receptor 1 (hAM1R) (human, UniProt Q16602 23-461; O60895 43-175); experiment: cell-based or functional assay
human adrenomedullin receptor 1 (hAM1R), sequence (Q16602 23-461, chain 1 of 2): as the sequence (Q16602 23-461) above
human adrenomedullin receptor 1 (hAM1R), sequence (O60895 43-175, chain 2 of 2): as the sequence (O60895 43-175 partner) above

Row | Molecule | Fibril formation [2] | hAMY3R EC50 (nM), cAMP accumulation [7] [nM] | hAM1R EC50 (nM), cAMP accumulation [8] [nM] | other results
1 | CC[C@H](C)[C@H](NC(=O)[C@@H]1CCCN1C(=O)CNC(=O)[C@H](Cc1ccccc1)NC(=O)[C@H](CC(N)=O)NC(=O)[C@H](CC(N)=O)NC(=O)[C@H](CO)NC(=O)[C@H](CO)NC(=O)[C@H](Cc1c[nH]cn1)NC(=O)[C@@H](NC(=O)[C@H](CC(C)C)NC(=O)[C@H](Cc1ccccc1)NC(=O)[C@H](CC(N)=O)NC(=O)[C@H](C)NC(=O)[C@H](CC(C)C)NC(=O)[C@H](CCCNC(=N)N)NC(=O)[C@H](CCC(N)=O)NC(=O)[C@@H](NC(=O)[C@H](C)NC(=O)[C@@H]1CSSC[C@H](NC(=O)[C@@H](N)CCCCN)C(=O)N[C@@H](CC(N)=O)C(=O)N[C@@H]([C@@H](C)O)C(=O)N[C@@H](C)C(=O)N[C@@H]([C@@H](C)O)C(=O)N1)[C@@H](C)O)C(C)C)C(=O)N[C@@H](CC(C)C)C(=O)N1CCC[C@H]1C(=O)N1CCC[C@H]1C(=O)N[C@H](C(=O)N[C@@H](CC(N)=O)C(=O)N[C@H](C(=O)NCC(=O)N[C@@H](CO)C(=O)N[C@@H](CC(N)=O)C(=O)N[C@H](C(=O)N[C@@H](Cc1ccc(O)cc1)C(N)=O)[C@@H](C)O)C(C)C)[C@@H](C)O [Pramlintide] | – | – | – | fibrillation at pH 7 [1]: fibrillates
2 | CC[C@H](C)[C@H](NC(=O)[C@H](CCC(N)=O)NC(=O)[C@H](Cc1c[nH]cn1)NC(=O)[C@H](C)NC(=O)[C@H](CC(C)C)NC(=O)[C@H](CCCCN)NC(=O)[C@H](CCC(N)=O)NC(=O)[C@@H](NC(=O)[C@@H](NC(=O)[C@@H]1CSSC[C@H](NC(=O)CN)C(=O)N[C@@H](CCCNC(=N)N)C(=O)N[C@@H](Cc2ccccc2)C(=O)NCC(=O)N[C@@H]([C@@H](C)O)C(=O)N1)[C@@H](C)O)C(C)C)C(=O)N[C@@H](Cc1ccc(O)cc1)C(=O)N[C@@H](CCC(N)=O)C(=O)N[C@@H](Cc1ccccc1)C(=O)N[C@H](C(=O)N[C@@H](CC(=O)O)C(=O)N[C@@H](CCCCN)C(=O)N[C@@H](CC(=O)O)C(=O)N[C@@H](CCCCN)C(=O)N[C@@H](CC(=O)O)C(=O)N[C@@H](CC(N)=O)C(=O)N[C@H](C(=O)N[C@@H](C)C(=O)N1CCC[C@H]1C(=O)N[C@@H](CCCNC(=N)N)C(=O)N[C@@H](CO)C(=O)N[C@@H](CCCCN)C(=O)N[C@H](C(=O)N[C@@H](CO)C(=O)N1CCC[C@H]1C(=O)N[C@@H](CCC(N)=O)C(=O)NCC(=O)N[C@@H](Cc1ccc(O)cc1)C(N)=O)[C@@H](C)CC)C(C)C)[C@@H](C)O [SEQ ID NO: 1] | No | – | – | fibrillation at pH 7 [1]: does not fibrillate
3 | CC[C@H](C)[C@H](NC(=O)[C@H](C)NC(=O)CNC(=O)[C@H](Cc1ccccc1)NC(=O)[C@H](CC(N)=O)NC(=O)[C@H](CC(N)=O)NC(=O)[C@H](CO)NC(=O)[C@H](CO)NC(=O)[C@H](Cc1c[nH]cn1)NC(=O)[C@@H](NC(=O)[C@H](CC(C)C)NC(=O)[C@H](Cc1ccccc1)NC(=O)[C@H](CC(N)=O)NC(=O)[C@H](C)NC(=O)[C@H](CC(C)C)NC(=O)[C@H](CCCNC(=N)N)NC(=O)[C@H](CCC(N)=O)NC(=O)[C@@H](NC(=O)[C@H](C)NC(=O)[C@@H]1CSSC[C@H](NC(=O)[C@@H](N)CCCCN)C(=O)N[C@@H](CC(N)=O)C(=O)N[C@@H]([C@@H](C)O)C(=O)N[C@@H](C)C(=O)N[C@@H]([C@@H](C)O)C(=O)N1)[C@@H](C)O)C(C)C)C(=O)N[C@@H](CC(C)C)C(=O)N[C@@H](CO)C(=O)N[C@@H](CO)C(=O)N[C@H](C(=O)N[C@@H](CC(N)=O)C(=O)N[C@H](C(=O)NCC(=O)N[C@@H](CO)C(=O)N[C@@H](CC(N)=O)C(=O)N[C@H](C(=O)N[C@@H](Cc1ccc(O)cc1)C(N)=O)[C@@H](C)O)C(C)C)[C@@H](C)O [SEQ ID NO: 2] | Yes | – | – | –
4 | CC[C@H](C)[C@H](NC(=O)[C@H](CCC(N)=O)NC(=O)[C@H](CCC(=O)O)NC(=O)[C@H](C)NC(=O)[C@H](CC(C)C)NC(=O)[C@H](CCCNC(=N)N)NC(=O)[C@H](CCC(N)=O)NC(=O)[C@@H](NC(=O)[C@@H](NC(=O)[C@@H]1CSSC[C@H](NC(=O)[C@H](CCCCN)NC(=O)CC[C@H](NC(=O)CCCCCCCCCCCCCCCCCCC(=O)O)C(=O)O)C(=O)N[C@@H](CC(N)=O)C(=O)N[C@@H]([C@@H](C)O)C(=O)N[C@@H](C)C(=O)N[C@@H]([C@@H](C)O)C(=O)N1)[C@@H](C)O)C(C)C)C(=O)N[C@@H](C)C(=O)N[C@@H](CCC(N)=O)C(=O)N[C@@H](Cc1ccccc1)C(=O)N[C@H](C(=O)N[C@@H](CC(=O)O)C(=O)N[C@@H](CCCCN)C(=O)N[C@@H](CC(=O)O)C(=O)N[C@@H](CCCCN)C(=O)N[C@@H](CC(=O)O)C(=O)N[C@@H](CC(N)=O)C(=O)N[C@H](C(=O)N[C@@H](C)C(=O)N1CCC[C@H]1C(=O)N1CCC[C@H]1C(=O)N[C@H](C(=O)N[C@@H](CC(N)=O)C(=O)N[C@H](C(=O)NCC(=O)N[C@@H](CO)C(=O)N[C@@H](CC(N)=O)C(=O)NCC(=O)N1C[C@H](O)C[C@H]1C(N)=O)C(C)C)[C@@H](C)O)C(C)C)[C@@H](C)O [SEQ ID NO: 3] ({C20 diacid-γGlu}-KCNTATCTVQRLAEQIAQFTDKDKDNVAPPTNVGSNG[Hyp]-NH2; disulfide 2-7) | No | – | – | Deamidation [3]: 97%; Isomerization [3]: 5%; Dimerization and HMWP formation [4]: 12%; EC50 [5]: 14 nM; EC50 [6]: > 5 µM; fibrillation ([1]; previously shown): no fibrillation
5 | {C20 diacid-γGlu}-KCNTATCTVQRLAEQIAQFTDKDKDNVAPPTNVGSNG[Hyp] (disulfide 2-7; also: C-terminal generally amidated (-CONH2) per the definitions) [reference polypeptide KCNTATCTVQRLAEQIAQFTDKDKDNVAPPTNVGSNG[Hyp] (SEQ ID NO: 3)] | – | 0.014 | > 5000 | –
6 | {C20 diacid-γGlu}-KCLTATCTVARLAEQIAQFTDKDKENVAPPTAVGSAG[Hyp] (bridge 2-7 via ‑S‑CH2‑S‑; also: C-terminal generally amidated (-CONH2) per the definitions) [polypeptide KCLTATCTVARLAEQIAQFTDKDKENVAPPTAVGSAG[Hyp] (SEQ ID NO: 4)] | – | 0.009 | > 5000 | –
7 | KCNTATCATQRLANFLVHSSNNFGAILSSTNVGSNTY-NH2 (disulfide 2-7) [human amylin hAMY1-37] | – | 0.01 | > 5000 | –
